From PubChem BioAssay (NCI)
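Cultured in 96-well plates, cells were exposed to test compound for 48 hours across five concentrations. GI50: concentration for 50% inhibition of growth. At the TGI there is no net growth.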

Tests used:
Experiment in all cases: growth of human tumour cells (NCI), 48 h
HOP-92 NSCLC = test system: HOP-92 NSCLC
K-562 leukemia = test system: K-562 leukemia
KM12 colon = test system: KM12 colon
OVCAR-4 ovarian = test system: OVCAR-4 ovarian
OVCAR-8 ovarian = test system: OVCAR-8 ovarian
SW-620 colon = test system: SW-620 colon
U251 CNS = test system: U251 CNS
UACC-62 melanoma = test system: UACC-62 melanoma

| SMILES | GI50 (HOP-92 NSCLC) | TGI (HOP-92 NSCLC) | GI50 (K-562 leukemia) | TGI (K-562 leukemia) | GI50 (KM12 colon) | TGI (KM12 colon) | GI50 (OVCAR-4 ovarian) | TGI (OVCAR-4 ovarian) | GI50 (OVCAR-8 ovarian) | TGI (OVCAR-8 ovarian) | GI50 (SW-620 colon) | TGI (SW-620 colon) | GI50 (U251 CNS) | TGI (U251 CNS) | GI50 (UACC-62 melanoma) | TGI (UACC-62 melanoma) |
| --- | --- | --- | --- | --- | --- | --- | --- | --- | --- | --- | --- | --- | --- | --- | --- | --- |
| Fc1ccc(Nc2ccc3cc(OCCCN4CCOCC4)ccc3n2)cc1F | 2.63 µM | 7.9 µM | 2.78 µM | > 100 µM | 2.06 µM | 5.48 µM | 4.14 µM | > 100 µM | 5.51 µM | > 100 µM | 2.12 µM | 4.4 µM | 2.92 µM | 7.79 µM | 1.99 µM | 4.94 µM |
| C/C=C/C/C=C/CCC(=O)C1OC1C(N)=O (stereo not drawn) | – | 29.4 µM | – | 36.8 µM | – | 29.5 µM | – | 23.8 µM | – | 26.7 µM | – | 42.3 µM | – | 30.7 µM | – | 29.3 µM |
| O=C(/C=C/C12c3ccccc3C(c3ccccc31)C1C(=O)NC(=O)C12)c1ccco1 (stereo not drawn) | 1.74 µM | 4.54 µM | 2.19 µM | 12.5 µM | 2.36 µM | 5.99 µM | 3.45 µM | 13.5 µM | 3.12 µM | 12.5 µM | 2.59 µM | 7.22 µM | 2.01 µM | 4.36 µM | 2.16 µM | 4.9 µM |
| O=C(CCc1ccc(O)c(O)c1)c1ccc(O)c(O)c1O | – | 68.4 µM | – | 66 µM | – | 36.2 µM | – | 78.5 µM | – | 74.2 µM | – | > 100 µM | – | 62.4 µM | – | > 100 µM |
| O=c1[nH]cnc2c1nnn2[C@@H]1O[C@H](CO)[C@@H](O)[C@H]1O | 2.33 µM | > 100 µM | 3.7 µM | > 100 µM | 7.85 µM | > 100 µM | 1.89 µM | > 100 µM | 0.843 µM | > 100 µM | 3.01 µM | > 100 µM | 25.8 µM | > 100 µM | 5.75 µM | 84.4 µM |
| CCOC(=O)CCc1c(C)c2ccc(O)cc2oc1=O | – | > 100 µM | – | > 100 µM | – | – | – | > 100 µM | – | > 100 µM | – | > 100 µM | – | > 100 µM | – | > 100 µM |
| CCOC(=O)c1ccc2[nH]c(Cc3[nH]c4ccc(C(=O)OCC)cc4c3C)c(C)c2c1 | 1.95 µM | 8.99 µM | 0.832 µM | 17.5 µM | 1.51 µM | 20.7 µM | 7.87 µM | 47.7 µM | 1.21 µM | 11.7 µM | 1.41 µM | 15.6 µM | 0.473 µM | 7.97 µM | 2.21 µM | 25.2 µM |
| N#Cc1c(SCc2ccccc2)nc2[nH]c(=S)[nH]c(=S)c2c1-c1ccco1 | 3.45 µM | 26.2 µM | 24.3 µM | > 100 µM | 60.3 µM | > 100 µM | > 100 µM | > 100 µM | 67.9 µM | > 100 µM | 33.9 µM | > 100 µM | > 100 µM | > 100 µM | 21.6 µM | 46.6 µM |
